Measurements taken from patent US20210094973A1, “HETEROCYCLIC COMPOUNDS” (Hoffmann-La Roche Inc., priority 2019, published 2021).
pIC50: −log10 of the molar value.

The compounds below were run against T1, MAGL (Homo sapiens, UniProt Q99685) (assay: 2-AG assay (MAGL inhibitory activity, hydrolysis of 2-arachidonoylglycerol followed by mass spectrometry)). Conditions: 15 min preincubation at RT, 8 μM 2-arachidonoylglycerol, 30 min at RT, arachidonic acid by MS.
T1 sequence (Q99685 1-303): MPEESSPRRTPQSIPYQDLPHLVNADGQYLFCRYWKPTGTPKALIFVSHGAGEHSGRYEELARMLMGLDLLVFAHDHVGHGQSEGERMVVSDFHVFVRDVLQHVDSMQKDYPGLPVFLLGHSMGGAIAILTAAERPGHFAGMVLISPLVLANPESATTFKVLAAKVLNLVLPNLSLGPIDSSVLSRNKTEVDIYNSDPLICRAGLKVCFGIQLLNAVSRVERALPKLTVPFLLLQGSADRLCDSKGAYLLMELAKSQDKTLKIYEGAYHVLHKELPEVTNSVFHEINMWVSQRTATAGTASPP
Format: biochemical
Procedure: Compounds were profiled for MAGL inhibitory activity by determining the enzymatic activity by following the hydrolysis of the natural substrate 2-arachidonoylglycerol (2-AG) resulting in arachidonic acid, which can be followed by mass spectrometry. This assay is hereinafter abbreviated “2-AG assay”.
The 2-AG assay was carried out in 384 well assay plates (PP, Greiner Cat #784201) in a total volume of 20 μL. Compound dilutions were made in 100% DMSO (VWR Chemicals 23500.297) in a polypropylene plate in 3-fold dilution steps to give a final concentration range in the assay from 12.5 μM to […]. 0.25 μL compound dilutions (100% DMSO) were added to 9 μL MAGL in assay buffer (50 mM TRIS (GIBCO, 15567-027), 1 mM EDTA (Fluka, 03690-100 mL), 0.01% (v/v) Tween. After shaking, the plate was incubated for 15 min at RT. To start the reaction, 10 μL 2-arachidonoylglycerol in assay buffer was added. The final concentrations in the assay was […] and 8 μM 2-arachidonoylglyerol. After shaking and 30 min incubation at RT, the reaction was quenched by the addition of 40 μL of ACN containing 4 μM of d8-arachidonic acid. The amount of arachidonic acid was traced by an online SPE system (Agilent Rapidfire) coupled to a triple quadrupole mass spectrometer (Agilent 6460). A C18 SPE cartridge (G9205A) was used in an ACN/water liquid setup. The mass spectrometer was operated in negative electrospray mode following the mass transitions 303.1→259.1 for arachidonic acid and 311.1→267.0 for d8-arachidonic acid. The activity of the compounds was calculated based on the ratio of intensities [arachidonic acid/d8-arachidonic acid].
`O=C1CO[C@H]2CCN(C(=O)N3CCC(OCc4ccc(F)cc4Cl)CC3)C[C@H]2N1` [Example 25, (4aR,8aS)-6-(4-((2-Chloro-4-fluorobenzyl)oxy)piperidine-1-carbonyl)hexahydro-2H-pyrido[4,3-b][1,4]oxazin-3(4H)-one] was tested, and the pIC50 was 7.14.
`O=C1CO[C@H]2CCN(C(=O)N3CCC(OCc4ccc(C(F)(F)F)cc4Cl)CC3)C[C@H]2N1` [Example 26, (4aR,8aS)-6-(4-((2-chloro-4-(trifluoromethyl)benzyl)oxy)piperidine-1-carbonyl)hexahydro-2H-pyrido[4,3-b][1,4]oxazin-3(4H)-one] showed a pIC50 of 8.28.
`COc1cc(COC2CN(C(=O)N3CC[C@@H]4OCC(=O)N[C@@H]4C3)C2)ccc1F` [Example 30, (4aR,8aS)-6-(3-((4-Fluoro-3-methoxybenzyl)oxy)azetidine-1-carbonyl)hexahydro-2H-pyrido[4,3-b][1,4]oxazin-3(4H)-one] was tested, and the pIC50 was 7.11.
`O=C1CO[C@H]2CCN(C(=O)N3CC(OCc4ccc(S(F)(F)(F)(F)F)cc4)C3)C[C@H]2N1` [Example 31, (4aR,8aS)-6-(3-((4-(Pentafluoro-16-sulfanyl)benzyl)oxy)azetidine-1-carbonyl)hexahydro-2H-pyrido[4,3-b][1,4]oxazin-3(4H)-one] gave a pIC50 of 8.24.
`O=C1CO[C@H]2CCN(C(=O)N3CC(OCc4ccccc4OC(F)(F)F)C3)C[C@H]2N1` [Example 32, (4aR,8aS)-6-(3-((2-(Trifluoromethoxy)benzyl)oxy)azetidine-1-carbonyl)hexahydro-2H-pyrido[4,3-b][1,4]oxazin-3(4H)-one] was tested, and the pIC50 was 7.65.
`O=C1CO[C@H]2CCN(C(=O)N3CC(OCc4ccc(Cl)cc4OC(F)(F)F)C3)C[C@H]2N1` [Example 33, (4aR,8aS)-6-(3-((4-Chloro-2-(trifluoromethoxy)benzyl)oxy)azetidine-1-carbonyl)hexahydro-2H-pyrido[4,3-b][1,4]oxazin-3(4H)-one] showed a pIC50 of 8.23.
`Cc1ccc(C(F)(F)F)cc1COC1CN(C(=O)N2CC[C@@H]3OCC(=O)N[C@@H]3C2)C1` [Example 34, (4aR,8aS)-6-(3-((2-Methyl-5-(trifluoromethyl)benzyl)oxy)azetidine-1-carbonyl)hexahydro-2H-pyrido[4,3-b][1,4]oxazin-3(4H)-one] was tested, and the pIC50 was 8.10.
For `O=C1CO[C@H]2CCN(C(=O)N3CCC(Cc4ccc(C(F)(F)F)c(-c5ccccc5)c4)CC3)C[C@H]2N1` [Example 35, (4aR,8aS)-6-[4-[[3-Phenyl-4-(trifluoromethyl)phenyl]methyl]piperidine-1-carbonyl]-4,4a,5,7,8,8a-hexahydropyrido[4,3-b][1,4]oxazin-3-one], the pIC50 was 8.34.
`O=C1CO[C@H]2CCN(C(=O)N3CCC(Cc4ccc(C(F)(F)F)cc4C(F)(F)F)CC3)C[C@H]2N1` [Example 36, (4aR,8aS)-6-[4-[[2,4-bis(Trifluoromethyl)phenyl]methyl]piperidine-1-carbonyl]-4,4a,5,7,8,8a-hexahydropyrido[4,3-b][1,4]oxazin-3-one] showed a pIC50 of 8.03.
`Cc1cc(CC2CCN(C(=O)N3CC[C@@H]4OCC(=O)N[C@@H]4C3)CC2)cnc1C(F)(F)F` [Example 37, (4aR,8aS)-6-(4-((5-Methyl-6-(trifluoromethyl)pyridin-3-yl)methyl)piperidine-1-carbonyl)hexahydro-2H-pyrido[4,3-b][1,4]oxazin-3(4H)-one] was tested, and the pIC50 was 7.50.
In the case of `O=C1CO[C@H]2CCN(C(=O)N3CC(OCc4ccc(OC(F)F)cc4)C3)C[C@H]2N1` [Example 40, (4aR,8aS)-6-(3-((4-(Difluoromethoxy)benzyl)oxy)azetidine-1-carbonyl)hexahydro-2H-pyrido[4,3-b][1,4]oxazin-3(4H)-one], the pIC50 was 7.33.
`O=C1CO[C@H]2CCN(C(=O)C3CC(OCc4ccc(C(F)(F)F)cc4Cl)C3)C[C@H]2N1` (stereo partly drawn) [Example 41, (4aR,8aS)-6-(3-((2-Chloro-4-(trifluoromethyl)benzyl)oxy)cyclobutane-1-carbonyl)hexahydro-2H-pyrido[4,3-b][1,4]oxazin-3(4H)-one] showed a pIC50 of 6.11.
Work on `O=C1CO[C@H]2CCN(C(=O)[C@H]3C[C@H](OCc4ccc(C(F)(F)F)cc4Cl)C3)C[C@H]2N1` [Example 42, (4aR,8aS)-6-(3-((2-Chloro-4-(trifluoromethyl)benzyl)oxy)cyclobutane-1-carbonyl)hexahydro-2H-pyrido[4,3-b][1,4]oxazin-3(4H)-one] yielded a pIC50 of 6.58.
`O=C1CO[C@H]2CCN(C(=O)N3CC(OCc4ccc(C(F)(F)F)cn4)C3)C[C@H]2N1` [Example 43, (4aR,8aS)-6-(3-((5-(Trifluoromethyl)pyridin-2-yl)methoxy)azetidine-1-carbonyl)hexahydro-2H-pyrido[4,3-b][1,4]oxazin-3(4H)-one] was tested, and the pIC50 was 6.80.
`O=C1CO[C@H]2CCN(C(=O)N3CC(OCc4ccc(OC(F)(F)F)cc4)C3)C[C@H]2N1` [Example 44, (4aR,8aS)-6-(3-((4-(Trifluoromethoxy)benzyl)oxy)azetidine-1-carbonyl)hexahydro-2H-pyrido[4,3-b][1,4]oxazin-3(4H)-one] gave a pIC50 of 7.63.
Work on `O=C1CO[C@H]2CCN(C(=O)N3CC(C(=O)Nc4ccc(F)cc4Cl)C3)C[C@H]2N1` [Example 45, N-(2-chloro-4-fluorophenyl)-1-((4aR,8aS)-3-oxooctahydro-2H-pyrido[4,3-b][1,4]oxazine-6-carbonyl)azetidine-3-carboxamide] yielded a pIC50 of 5.90.
Compound `CC(Oc1ccc(C(F)(F)F)cc1Cl)C1CN(C(=O)N2CC[C@H]3OCC(=O)N[C@H]3C2)C1` (stereo partly drawn) [Example 46, (4aS,8aR)-6-(3-(1-(2-Chloro-4-(trifluoromethyl)phenoxy)ethyl)azetidine-1-carbonyl)hexahydro-2H-pyrido[4,3-b][1,4]oxazin-3(4H)-one] has a pIC50 of 6.65.
`O=C1CO[C@H]2CCN(C(=O)N3CCC(c4ccnnc4C(F)(F)F)CC3)C[C@H]2N1` [Example 47, (4aR,8aS)-6-(4-(3-(Trifluoromethyl)pyridazin-4-yl)piperidine-1-carbonyl)hexahydro-2H-pyrido[4,3-b][1,4]oxazin-3(4H)-one] showed a pIC50 of 7.04.
Compound `O=C1CO[C@H]2CCN(C(=O)N3CC(c4nnc(-c5ccc(F)cc5F)[nH]4)C3)C[C@H]2N1` [Example 48, (4aR,8aS)-6-[3-[5-(2,4-Difluorophenyl)-4H-1,2,4-triazol-3-yl]azetidine-1-carbonyl]-4,4a,5,7,8,8a-hexahydropyrido[4,3-b][1,4]oxazin-3-one] has a pIC50 of 6.48.
Work on `O=C1CO[C@H]2CCN(C(=O)N3CC(OCc4ccc(F)cc4C(F)(F)F)C3)C[C@H]2N1` [Example 49, (4aR,8aS)-6-[3-[[4-Fluoro-2-(trifluoromethyl)phenyl]methoxy]azetidine-1-carbonyl]-4,4a,5,7,8,8a-hexahydropyrido[4,3-b][1,4]oxazin-3-one] yielded a pIC50 of 7.47.
“(4aR,8aS)-6-[rel-(3R,4R)-4-[(2-chloro-4-fluoro-phenoxy)methyl]-3-methyl-piperidine-1-carbonyl]-4,4a,5,7,8,8a-hexahydropyrido[4,3-b][1,4]oxazin-3-one [Example 38]” gave a pIC50 of 8.19.
In the case of “(4aR,8aS)-6-[rel-(3R,4R)-4-[(2-chloro-4-fluoro-phenoxy)methyl]-3-methyl-piperidine-1-carbonyl]-4,4a,5,7,8,8a-hexahydropyrido[4,3-b][1,4]oxazin-3-one [Example 39]”, the pIC50 was 8.72.
